Data on two compounds can be found in patent publication US11917995B2, “Fungicidal compositions of mefentrifluconazole” (BASF AGRO B.V., priority 2018, dated 2024).

What all share (format): cell-based
The test system of one assay is Septoria tritici. Description: Microtest: activity against leaf blotch on wheat caused by Septoria tritici (Septtr). The following applies: single active compound, 0.001 ppm; 7 days after inoculation. How it is done: (§1) The visually determined percentages of infected leaf areas are converted into efficacies in % of the untreated control.
(§2) The efficacy (E) is calculated as follows using Abbot's formula: E=(1−α/β·100 • α corresponds to the fungicidal infection of the treated plants in % and • β corresponds to the fungicidal infection of the untreated (control) plants in %
(§3) An efficacy of 0 means that the infection level of the treated plants corresponds to that of the untreated control plants; an efficacy of 100 means that the treated plants were not infected. The expected efficacies of active compound combinations may be determined using Colby's formula (Colby, S. R. “Calculating synergistic and antagonistic responses of herbicide combinations”, Weeds, 15, pp. 20-22, 1967) and compared with the observed efficacies. […]
The stock solutions were mixed according to the ratio, pipetted onto a micro titer plate (MTP) and diluted with water to the stated concentrations. […] Using an absorption photometer, the MTPs were measured at 405 nm 7 days after the inoculation.
(§4) The measured parameters were compared to the growth of the active compound-free control variant (100%) and the fungus-free and active compound-free blank value to determine the relative growth in % of the pathogens in the respective active compounds.

The next assay relates to Sclerotinia sclerotiorum. Description: Microtiterplate test: activity against Sclerotinia sclerotiorum (Sclesc). The following applies: single active compound, 0.25 ppm; 7 days after inoculation. Here is the method:
as §1, §2, §3
The stock solutions were mixed according to the ratio, pipetted onto a micro titer plate(MTP) and diluted with water to the stated concentrations. […] Using an absorption photometer, the MTPs were measured at 405 nm 7 days after the inoculation.
as §4

The test system of assay [1] is Colletotrichum orbicularum. Description: Microtiterplate test: activity against Colletotrichum orbicularum (Collla). Particulars: single active compound, 7 days after inoculation. Here is the method: as §1, §2
(§5) An efficacy of 0 means that the infection level of the treated plants corresponds to that of the untreated control plants; an efficacy of 100 means that the treated plants were not infected. The expected efficacies of active compound combinations may be determined using Colby's formula (Colby, S. R. “Calculating synergistic and antagonistic responses of herbicide combinations”, Weeds, 15, pp. 20-22, 1967) and compared with the observed efficacies.
(§6) Colby's formula: E=x+y−x·y/100 • E expected efficacy, expressed in % of the untreated control, when using the mixture of the active compounds A and B at the concentrations a and b • x efficacy, expressed in % of the untreated control, when using the active compound A at the concentration a • y efficacy, expressed in % of the untreated control, when using the active compound B at the concentration b.
(§7) The active compounds were formulated separately as a stock solution having a concentration of 10000 ppm in dimethyl sulfoxide.
(§8) The stock solutions were mixed according to the ratio, pipetted onto a micro titer plate(MTP) and diluted with water to the stated concentrations. Spores of the respective pathogen in an aqueous biomalt or yeast-bactopeptone-glycerine solution were then added. The plates were placed in a water vapor-saturated chamber at a temperature of 18° C. Using an absorption photometer, the MTPs were measured at 405 nm 7 days after the inoculation.
as §4

In another assay the test system is Colletotrichum truncatum. The assay is described as follows: Microtiterplate test: activity against Colletotrichum truncatum (Colldu). Particulars: single active compound, 7 days after inoculation. Here is the method:
as §1, §2, §5, §6, §7, §8, §4

In the case of `CCN(C)C=Nc1cc(C)c(Oc2ccccc2)cc1C` [II-3, N′-(2,5-dimethyl-4-phenoxy-phenyl)-N-ethyl-N-methyl-formamidine], the Observed efficacy in the assay on Septoria tritici stood at 5%; in the assay on Sclerotinia sclerotiorum, 11%; in assay [1] (0.25 ppm) it was 19%; in the assay with Colletotrichum truncatum (4 ppm) it was 16%.
Turning to `CC(O)(Cn1cncn1)c1ccc(Oc2ccc(Cl)cc2)cc1C(F)(F)F` (stereo not drawn) [Mefentrifluconazole, mefentrifluconazole], the Observed efficacy in the assay on Septoria tritici is 0%; in the assay with Sclerotinia sclerotiorum it was 1%; in assay [1] (0.25 ppm), 7%; in assay [1] (1 ppm) it was 25%; with Colletotrichum truncatum (0.063 ppm), 0%; in the assay on Colletotrichum truncatum (0.25 ppm), 8%. The Observed efficacy worked out at 18% in the assay on Colletotrichum truncatum (1 ppm) and 28% in the assay on Colletotrichum truncatum (4 ppm).
